Measurements published in patent US10029982B2, “Light absorptive compound, polymer composition containing the compound, polymer film, and cured layer” (Sumitomo Chemical Company, Limited, priority 2015, dated 2018).

Assays:
[1] = Solubility test in various solvents; type: physicochemical; conditions: room temperature 25±3° C., visually confirmed 60 minutes after preparation; for Solubility in various solvents MEK: 2-butanone; for Solubility in various solvents IPA: 2-propanol; for Solubility in various solvents CHF: chloroform; for Solubility in various solvents EAC: ethyl acetate; for Solubility in various solvents PGMEA: propylene glycol monomethyl ether acetate; for Solubility in various solvents TOL: toluene
Procedure: The compound UVA-01 (50 mg) obtained by the method described in Synthesis Example 1 was mixed with 450 mg of the solvent described below to prepare a 10% by mass solution. […] Also, 50 mg of UVA-01 was mixed with 950 mg of the solvent described below to prepare a 5% by mass solution, and the same solubility test was performed. The solubility of the compound UVA-01 was visually confirmed in 60 minutes after preparation of each solution. Incidentally, the criteria for evaluation of the test results are as follows.
A: soluble by 10% by mass or more
B: soluble by 5% by mass or more and less than 10% by mass
C: soluble by less than 5% by mass
2-butanone (manufactured by KANTO CHEMICAL CO., INC., hereinafter abbreviated as MEK) 2-propanol (manufactured by NACALAI TESQUE, INC., hereinafter abbreviated as IPA) toluene (manufactured by NACALAI TESQUE, INC., hereinafter abbreviated as TOL) ethyl acetate (manufactured by NACALAI TESQUE, INC., hereinafter abbreviated as EAC) chloroform (manufactured by KANTO CHEMICAL CO., INC., hereinafter abbreviated as CHF) propylene glycol monomethyl ether acetate (manufactured by Tokyo Chemical Industry Co., Ltd., hereinafter abbreviated as PGMEA) The solubility test was performed in the same manner as in Example 1 except for replacing UVA-01 with UVA-02 or UVA-03.
The solubility test was performed in the same manner as in Example 1 except for replacing UVA-01 with UVA-R01.

[2] = Absorption measurement of the compound with spectrophotometer UV-3150; type: physicochemical; conditions: in 2-butanone
Description: The compound (I) preferably satisfies the following formula (a). ε(420)/ε(400)≤0.4 (a)
The smaller value offers a transparent compound with less yellowness.
Also, the compound (I) preferably satisfies the following formulae (b) and (c) in addition to the formula (a). λmax<420 nm (b) ε(400)≥40 (c)
In the formula (b), λmax denotes maximum absorption wavelength of the compound (I). In the formula (c), ε(400) denotes gram absorption coefficient at a wavelength of 400 nm, and the unit of gram absorption coefficient is defined by L/(g·cm). […]
A compound UVA-R01 was synthesized in accordance with the method described in Patent Literature (DE101 09 243 A1). Refinement was performed by subjecting the solution to column chromatography (silica gel). When absorption maximum wavelength (λmax) was measured by using a spectrophotometer UV-3150 (manufactured by SHIMADZU CORPORATION), the results were such that λmax=389 nm (in 2-butanone), ε(400) was 146 L/(g·cm), and ε(420)/ε(400) was 0.0122. Then, the following peaks were observed through ^1H-NMR analysis, so that it was confirmed that the compound UVA-R01 was produced.

Structure (SMILES) | Solubility in various solvents MEK [1] | Solubility in various solvents IPA [1] | Solubility in various solvents CHF [1] | Solubility in various solvents EAC [1] | Solubility in various solvents PGMEA [1] | Solubility in various solvents TOL [1] | absorption maximum wavelength (λmax) [2] | ε(400), gram absorption coefficient at a wavelength of 400 nm [2] | ε(420)/ε(400) [2]
CCOCCOC(=O)/C(C#N)=C\C=C1/CCCN1C [UVA-01] | A (soluble by 10% by mass or more) | A (soluble by 10% by mass or more) | A (soluble by 10% by mass or more) | A (soluble by 10% by mass or more) | A (soluble by 10% by mass or more) | A (soluble by 10% by mass or more) | 389 nm | 125 L/g/cm | 0.0153
COCCOCCOCCOC(=O)/C(C#N)=C\C=C1/CCCN1C [UVA-02] | A (soluble by 10% by mass or more) | A (soluble by 10% by mass or more) | A (soluble by 10% by mass or more) | A (soluble by 10% by mass or more) | A (soluble by 10% by mass or more) | A (soluble by 10% by mass or more) | 388 nm | 95.2 L/g/cm | 0.0161
CCCCC(CC)COC(=O)/C(C#N)=C\C=C1/CCCN1C (stereo not drawn) [UVA-03] | A (soluble by 10% by mass or more) | A (soluble by 10% by mass or more) | A (soluble by 10% by mass or more) | A (soluble by 10% by mass or more) | B (soluble by 5% by mass or more and less than 10% by mass) | A (soluble by 10% by mass or more) | 389 nm | 108 L/g/cm | 0.0132
CCOC(=O)/C(C#N)=C\C=C1/CCCN1C [UVA-R01, reference compound] | C (soluble by less than 5% by mass) | C (soluble by less than 5% by mass) | C (soluble by less than 5% by mass) | C (soluble by less than 5% by mass) | C (soluble by less than 5% by mass) | C (soluble by less than 5% by mass) | 389 nm | 146 L/g/cm | 0.0122
